According to patent EP3727043B1 (Golden Gait Biotech, S.L., priority 2017, dated 2019):
Where two headings read alike, the source gives them in different places.

Assays:
[1] = tested on: rats with a unilateral 6-hydroxydopamine lesion; assay: LIDs in rats with a unilateral 6-hydroxydopamine lesion; format: in vivo; conditions: parkinsonian rat model of LIDs
β2* nAChR = β2* nAChR (Homo sapiens, UniProt P17787); conditions: nAChR subtype: β2; cited from earlier work
α7 nAChR = α7 nAChR (Homo sapiens, UniProt P36544); conditions: nAChR subtype: α7; cited from earlier work
[2] = cited from earlier work
[3] = cited from earlier work; remark: listed apart in the source
[4] = in vivo; cited from earlier work
[5] = tested on: patients with idiopathic PD and levodopa induced dyskinesias (LIDs); conditions: for worsening of Parkinson symptoms (UPDRS Part III, Hoehn and Yahr scales): during the study
Procedure: Efficacy was measured with the Unified Dyskinesia Rating Scale (UDysRS), a semi- quantitative assessment, FDA-validated instrument to assess gait, balance and dyskinesia in PD. […] Dosing was begun at 1 mg every 6 hours to a final dose of 24 mg per day.
All hypotheses were tested using 2-sided tests with alpha set at the 0.050 level of significance. In general, efficacy data were summarized by treatment group, and safety data were summarized by treatment group and overall. In all analyses, assumptions such as normality and homogeneity of variance were examined prior to conducting the proposed parametric statistical procedures. Categorical variables were analyzed by Fisher's exact 2- tailed test and continuous variables were tested under 2-sample t-tests. The equality of variances was examined using an F-test before applying the 2-sample t-test.

rats and mice = conditions: oral application, injection and slow-release minipumps
[6] = tested on: patients with idiopathic PD and levodopa induced dyskinesias (LIDs)
Procedure: At the time the study was performed (2009), there was no FDA accepted instrument for measuring treatment efficacy for LIDs. Therefore, several secondary objectives were utilized to assess efficacy including the Unified Dyskinesia Rating Scale (UDysRS).
A total of 65 male and female subjects with idiopathic PD with LIDs were randomized in the study. The study consisted of 4 phases (FIG. 6A): screening phase (up to 3 weeks), double-blind treatment phase (10 weeks), taper phase (2 weeks), and follow-up phase (2 weeks). The approximate duration of the study for each subject was 17 weeks. […] During the double-blind treatment phase, dosing was begun at Visit 0 at 1 mg every 6 hours (total daily dose [TDD] = 4 mg/day) and escalated upwards at 2-week intervals as follows: 2 mg every 6 hours (TDD = 8 mg/day) at Visit 1 (Week 2); 4 mg every 6 hours (TDD = 16 mg/day) at Visit 2 (Week 4); 6 mg every 6 hours (TDD = 24 mg/day) at Visit 3 (Week 6). Subjects were maintained on 24 mg/day for 4 weeks. The subsequent taper phase (2 weeks total), beginning at Visit 4 (Week 10), consisted of 9 days of drug taper and 5 days off drug prior to Visit 5 (final safety visit). […] Ondansetron was provided by the sponsor and dispensed with each dose escalation step with instructions to use it for nausea and vomiting only during the first 4 days following dose initiation or escalation. […] No other dose down-titration was allowed. Table 5. Dose Escalation Schedule
A total of 65 patients with idiopathic PD and levodopa induced dyskinesias (LIDs) were randomized. Patients were required to have a diagnosis of idiopathic PD and be within a Hoehn & Yahr Stage II - IV while in a peak "ON" state(levodopa in a therapeutic range). They had to have moderate to severely disabling LIDs for at least 25% of the waking day, as determined by Questions 32 and 33 in Part II of the UPDRS and a Mini-Mental State Examination (MMSE) score of ≥26. Patients with atypical Parkinson disorders, prior deep brain stimulation (DBS), unstable angina, a history of ventricular arrhythmias, or active peptic ulcer or a history of schizophrenia, schizoaffective disorder, or bipolar disease were excluded. Patients who actively smoked were also excluded. Table 9: Demographics
The drug, or a placebo identical in appearance and packaging, was administered orally 4 times a day in a blinded fashion. Patients were examined while in an "ON" state, when levodopa was in a therapeutic range. During the treatment phase, dosing was begun at 1 mg every 6 hours (total daily dose=4 mg/day) and escalated upwards at 2-week intervals as follows: 2 mg every 6 hours at Visit 1; 4 mg every 6 hours at Visit 2; 6 mg every 6 hours at Visit 3. Patients were maintained on 24 mg/day for 4 weeks. All patients, study site personnel, raters and the sponsor were blinded to treatment assignment.
The original UPDRS scale was used. […] In the UPDRS Part II, Question 13 is on Falling unrelated to Freezing. […] In Part II, Question 14 is on Freezing when Walking. This is a 5-point item and has two variables freezing and falls. […] Questions 13 and 14 were compared separately (Table 11). […] Table 10: UPDRS Part II (ADL), UPDRS Part III (Motor Examination)
LIDs were assessed by the UDysRS, the main measure of LIDs (Table 12). […] The study was conducted in accordance with the Declaration of Helsinki and Good Clinical Practice Guidelines. All sites received approval from an institutional review board and written informed consent was obtained from each patient prior to participation. Table 12. Unified Dyskinesia Rating Scale (UDysRS)
All hypotheses were tested using 2-sided tests with alpha set at the 0.050 level of significance. In general, efficacy data were summarized by treatment group, and safety data were summarized by treatment group and overall.

[7] = tested on: α4β2* nAChR knockout mice
Text: Multiple receptors exist throughout the body with α1β1*, α3β4* and α7 nAChRs being the major subtypes in the peripheral nervous system and α4β2*, α6β2* and α7 nAChRs the primary ones in the brain. The *asterisk denotes the presence of other nAChR subunits in the receptor.

[8] = Phase 2 data used for sample size calculation

Sequence of β2* nAChR (P17787 26-502): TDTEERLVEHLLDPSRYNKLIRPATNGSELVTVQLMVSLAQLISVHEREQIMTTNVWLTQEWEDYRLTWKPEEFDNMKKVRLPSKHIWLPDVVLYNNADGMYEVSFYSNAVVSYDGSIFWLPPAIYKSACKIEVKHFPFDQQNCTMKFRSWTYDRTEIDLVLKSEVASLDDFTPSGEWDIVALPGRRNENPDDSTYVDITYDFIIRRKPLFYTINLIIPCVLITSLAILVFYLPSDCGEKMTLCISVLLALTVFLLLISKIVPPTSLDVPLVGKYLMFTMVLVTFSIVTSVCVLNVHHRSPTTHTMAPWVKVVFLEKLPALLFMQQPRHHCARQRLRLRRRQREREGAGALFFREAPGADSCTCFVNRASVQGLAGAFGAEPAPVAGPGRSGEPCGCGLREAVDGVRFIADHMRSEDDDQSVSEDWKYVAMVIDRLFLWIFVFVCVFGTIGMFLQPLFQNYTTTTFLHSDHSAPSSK
Sequence of α7 nAChR (P36544 23-502): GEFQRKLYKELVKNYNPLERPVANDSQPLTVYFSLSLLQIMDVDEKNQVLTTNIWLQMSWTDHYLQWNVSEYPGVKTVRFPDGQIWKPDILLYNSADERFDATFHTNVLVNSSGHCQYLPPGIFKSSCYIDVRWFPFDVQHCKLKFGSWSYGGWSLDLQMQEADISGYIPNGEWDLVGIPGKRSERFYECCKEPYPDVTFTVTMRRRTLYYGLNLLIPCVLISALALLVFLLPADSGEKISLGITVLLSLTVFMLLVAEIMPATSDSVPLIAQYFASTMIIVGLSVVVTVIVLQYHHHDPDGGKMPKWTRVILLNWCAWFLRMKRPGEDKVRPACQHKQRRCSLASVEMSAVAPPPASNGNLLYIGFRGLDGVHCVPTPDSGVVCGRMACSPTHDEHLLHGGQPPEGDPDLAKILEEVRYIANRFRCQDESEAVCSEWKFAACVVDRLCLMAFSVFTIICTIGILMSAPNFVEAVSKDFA

c1cncc(OC[C@@H]2CCN2)c1 [A-85380]
reduction of LIDs [1]: reduced LIDs to varying extents

Cc1ncccc1OC[C@@H]1CCCN1 [ABT-089]
Ki (β2* nAChR): 17 nM

c1cc2cc(-c3ccc(O[C@H]4CN5CCC4CC5)nn3)ccc2[nH]1 [ABT-107]
Ki (α7 nAChR): 0.5 nM

Clc1cc(N2C[C@@H]3CN[C@@H]3C2)cnc1Cl [ABT-894]
Ki (β2* nAChR): 0.3 nM

Cc1ccc(-c2ccc(OC3CN4CCC3CC4)cn2)cc1 (centres unmarked) [AQW051]
Ki (α7 nAChR): 27 nM

O=C(c1ccc(Cl)o1)N1CC2CNCC2C1 (centres unmarked) [AZD 1446]
Ki (β2* nAChR): 30 nM

C[C@@](Cc1ccc(O)c(O)c1)(NN)C(=O)O [Carbidopa, (-)-L-α-hydrazino-α-methyl-β-(3,4-dihydroxybenzene) propanoic acid monohydrate]
reduction of the amount of levodopa required to produce a given response ([2]; in vivo): about 75%
solubility in water [3]: slightly soluble in water

N[C@@H](Cc1ccc(O)c(O)c1)C(=O)O [Levodopa, (S)-2-amino-3-(3,4-dihydroxyphenyl) propanoic acid]
plasma half-life of levodopa ([2]; without carbidopa): 50 min
solubility in water [3]: slightly soluble in water

CN1CCC[C@H]1c1cccnc1 [Nicotine, (S)-3-[1-methylpyrrolidin-2-yl]pyridine, reference compound]
oral bioavailability [4]: approximately 30%
worsening of Parkinson symptoms (UPDRS Part III, Hoehn and Yahr scales) [5]: no worsening of Parkinsonian symptoms
worsening of Parkinson symptoms (UPDRS Part III, Hoehn and Yahr scales) ([5]; listed as nicotine): did not cause any worsening of the PD symptoms
subjects who completed the study ([5]; of 35 randomized): 25 subjects
subjects who withdrew because of AEs ([5]; of 35 randomized): 6 subjects
subjects who withdrew because of protocol violations ([5]; of 35 randomized): 2 subjects
subjects who withdrew from the study ([5]; of 35 randomized): 10 subjects
subjects who withdrew because of AEs ([5]; of 35 randomized, listed as nicotine): Six
reduction of LIDs (rats and mice): reduced LIDs
UDysRS part III, Week 10 result; change from baseline, mean [6, 8]: 5.2
UDysRS walking, Week 10 result; change from baseline, mean [6, 8]: 4.4
PGI-C responders (subjects with a score of 1, 2, or 3) ([6]; Visit 4 (Week 10), 21 responders, p = 0.0048 vs placebo): 77.8%
number of LF-ADL responders (subjects with ≥25% reduction from baseline), difference between treatment groups ([6]; Visit 4 (Week 10), p = 0.0453): statistically significant difference
Gait-subtest of the UDysRS versus placebo ([6]; human, in vivo): statistically superior to placebo
patient- and physician-rated assessments of efficacy versus placebo ([6]; human, in vivo): superior to placebo
antidyskinetic effect [7]: did not exert an antidyskinetic effect

CN[C@@H](C)C/C=C/c1cncc(OC(C)C)c1 [TC-2696]
reduction of LIDs [1]: reduced LIDs to varying extents

c1cnc2cc3c(cc2n1)[C@@H]1CNC[C@H]3C1 [Varenicline]
reduction of LIDs [1]: reduced LIDs to varying extents

OCCCCC#Cc1cncc(OC[C@@H]2CCN2)c1 [sazetidine]
reduction of LIDs [1]: reduced LIDs to varying extents
